Data: patent US20230391768A2, “IMIDAZOPYRIDINE DERIVATIVES AND AZA-IMIDAZOPYRIDINE DERIVATIVES AS JANUS KINASE 2 INHIBITORS AND USES THEREOF” (Dana-Farber Cancer Institute, Inc., priority 2018, published 2023)

Columns and labels:
Test in all cases: KINOMEscan
Type in all cases: binding
Settings in all cases: read-out: percent of control
[1] = target: ABL1(F317I)-nonphosphorylated (Homo sapiens (Human), UniProt P00519, F317I)
Description: (§1) In vitro profiling of Compound I-2 (1 μM) was performed using the DiscoveRx KINOMEscan® platform.

ACVRL1 = ACVRL1 (Homo sapiens (Human), UniProt P37023)
Description: as §1

ALK(L1196M) = ALK(L1196M) (Homo sapiens (Human), UniProt Q9UM73, L1196M)
Description: as §1

AMPK-alpha2 = AMPK-alpha2 (Homo sapiens (Human), UniProt P54646)
Description: as §1

ANKK1 = ANKK1 (Homo sapiens (Human), UniProt Q8NFD2)
Description: as §1

AURKC = AURKC (Homo sapiens (Human), UniProt Q9UQB9)
Description: as §1

BMPR2 = BMPR2 (Homo sapiens (Human), UniProt Q13873)
Description: as §1

CDK7 = CDK7 (Homo sapiens (Human), UniProt P50613)
Description: as §1

CLK2 = CLK2 (Homo sapiens (Human), UniProt P49760)
Chain of CLK2 (P49760 whole entry): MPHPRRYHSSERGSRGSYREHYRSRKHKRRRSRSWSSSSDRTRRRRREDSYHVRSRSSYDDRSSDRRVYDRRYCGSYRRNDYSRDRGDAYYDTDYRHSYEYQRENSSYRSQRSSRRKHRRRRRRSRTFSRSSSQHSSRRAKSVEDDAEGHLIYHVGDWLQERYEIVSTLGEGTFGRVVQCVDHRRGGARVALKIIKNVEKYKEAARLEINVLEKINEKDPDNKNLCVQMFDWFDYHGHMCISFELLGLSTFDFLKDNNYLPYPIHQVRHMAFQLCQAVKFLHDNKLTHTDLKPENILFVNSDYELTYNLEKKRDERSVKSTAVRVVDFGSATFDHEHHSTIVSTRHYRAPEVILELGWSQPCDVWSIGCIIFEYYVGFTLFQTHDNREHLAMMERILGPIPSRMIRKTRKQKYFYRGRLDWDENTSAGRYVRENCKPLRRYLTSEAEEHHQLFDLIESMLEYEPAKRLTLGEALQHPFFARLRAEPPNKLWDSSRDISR
Description: as §1

CSF1R-autoinhibited = CSF1R-autoinhibited (Homo sapiens (Human), UniProt P07333)
Description: as §1

CSNK1G3 = CSNK1G3 (Homo sapiens (Human), UniProt Q9Y6M4)
Description: as §1

CTK = CTK (Homo sapiens (Human), UniProt P42679)
Description: as §1

DRAK2 = DRAK2 (Homo sapiens (Human), UniProt O94768)
Chain of DRAK2 (O94768 whole entry): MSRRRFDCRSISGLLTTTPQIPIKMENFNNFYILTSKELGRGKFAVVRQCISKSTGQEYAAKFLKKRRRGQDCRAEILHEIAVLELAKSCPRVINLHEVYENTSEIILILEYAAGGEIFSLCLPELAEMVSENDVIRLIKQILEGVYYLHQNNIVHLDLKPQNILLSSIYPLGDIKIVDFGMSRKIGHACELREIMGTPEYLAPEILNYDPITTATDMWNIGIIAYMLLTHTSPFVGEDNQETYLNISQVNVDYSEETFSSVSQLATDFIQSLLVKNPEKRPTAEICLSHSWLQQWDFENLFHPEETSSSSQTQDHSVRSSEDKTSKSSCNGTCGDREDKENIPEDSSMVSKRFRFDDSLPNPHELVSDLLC
Description: as §1

EPHB 1 = EPHB 1 (Homo sapiens (Human), UniProt P54762)
Chain of EPHB 1 (P54762 18-984): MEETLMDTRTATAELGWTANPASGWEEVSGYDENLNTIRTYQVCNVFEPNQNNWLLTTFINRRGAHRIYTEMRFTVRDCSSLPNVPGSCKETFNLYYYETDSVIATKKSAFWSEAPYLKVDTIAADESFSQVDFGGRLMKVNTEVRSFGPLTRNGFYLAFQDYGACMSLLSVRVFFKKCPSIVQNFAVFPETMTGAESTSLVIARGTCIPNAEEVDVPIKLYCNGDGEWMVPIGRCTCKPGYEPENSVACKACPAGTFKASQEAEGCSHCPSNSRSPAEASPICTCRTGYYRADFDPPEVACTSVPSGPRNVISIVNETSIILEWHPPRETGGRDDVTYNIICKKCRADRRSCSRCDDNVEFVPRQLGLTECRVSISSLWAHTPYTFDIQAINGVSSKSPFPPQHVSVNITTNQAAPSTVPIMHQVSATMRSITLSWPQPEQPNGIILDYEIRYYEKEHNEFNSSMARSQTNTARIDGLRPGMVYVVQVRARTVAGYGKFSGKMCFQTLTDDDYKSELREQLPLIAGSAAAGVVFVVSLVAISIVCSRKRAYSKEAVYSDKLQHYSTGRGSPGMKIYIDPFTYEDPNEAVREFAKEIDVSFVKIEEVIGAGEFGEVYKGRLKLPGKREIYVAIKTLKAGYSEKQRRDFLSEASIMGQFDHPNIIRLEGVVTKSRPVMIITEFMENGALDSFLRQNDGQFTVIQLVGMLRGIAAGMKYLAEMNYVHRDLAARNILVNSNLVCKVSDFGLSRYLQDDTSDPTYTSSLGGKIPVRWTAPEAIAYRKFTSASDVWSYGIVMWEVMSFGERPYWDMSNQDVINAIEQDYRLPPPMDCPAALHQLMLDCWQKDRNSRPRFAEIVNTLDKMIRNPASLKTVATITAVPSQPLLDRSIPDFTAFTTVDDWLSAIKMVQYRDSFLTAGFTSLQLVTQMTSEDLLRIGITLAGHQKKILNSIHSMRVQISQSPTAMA
Description: as §1

ERK5 = ERK5 (Homo sapiens (Human), UniProt Q13164)
Description: as §1

FLT3 (D835V) = FLT3 (D835V) (Homo sapiens (Human), UniProt P36888, D835V)
Description: as §1

GAK = GAK (Homo sapiens (Human), UniProt O14976)
Description: as §1

JNK2 = JNK2 (Homo sapiens (Human), UniProt P45984)
Description: as §1

JNK3 = JNK3 (Homo sapiens (Human), UniProt P53779)
Description: as §1

LATS2 = LATS2 (Homo sapiens (Human), UniProt Q9NRM7)
Description: as §1

MAK = MAK (Homo sapiens (Human), UniProt P20794)
Description: as §1

MAP4K5 = MAP4K5 (Homo sapiens (Human), UniProt Q9Y4K4)
Description: as §1

MARK4 = MARK4 (Homo sapiens (Human), UniProt Q96L34)
Chain of MARK4 (Q96L34 whole entry): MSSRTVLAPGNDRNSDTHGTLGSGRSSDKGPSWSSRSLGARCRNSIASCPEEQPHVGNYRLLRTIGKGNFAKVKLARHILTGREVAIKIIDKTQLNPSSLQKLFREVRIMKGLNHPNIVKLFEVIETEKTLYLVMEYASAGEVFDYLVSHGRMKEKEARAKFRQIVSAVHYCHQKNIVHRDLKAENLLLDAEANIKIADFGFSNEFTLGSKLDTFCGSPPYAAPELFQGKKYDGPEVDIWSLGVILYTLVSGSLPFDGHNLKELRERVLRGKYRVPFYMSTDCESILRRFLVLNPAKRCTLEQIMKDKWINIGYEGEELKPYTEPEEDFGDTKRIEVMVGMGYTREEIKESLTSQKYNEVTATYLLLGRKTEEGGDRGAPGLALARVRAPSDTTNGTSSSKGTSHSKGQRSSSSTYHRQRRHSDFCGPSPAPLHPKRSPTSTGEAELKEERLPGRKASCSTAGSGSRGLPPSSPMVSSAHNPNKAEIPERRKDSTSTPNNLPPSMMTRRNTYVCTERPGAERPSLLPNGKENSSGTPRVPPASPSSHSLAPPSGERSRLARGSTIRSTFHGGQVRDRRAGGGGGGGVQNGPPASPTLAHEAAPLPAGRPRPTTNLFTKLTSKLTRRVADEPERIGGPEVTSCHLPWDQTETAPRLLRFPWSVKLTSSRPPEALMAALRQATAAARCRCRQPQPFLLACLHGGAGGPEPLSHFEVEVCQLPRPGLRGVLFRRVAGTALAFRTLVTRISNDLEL
Description: as §1

MINK = MINK (Homo sapiens (Human), UniProt Q8N4C8)
Description: as §1

MST4 = MST4 (Homo sapiens (Human), UniProt Q9P289)
Chain of MST4 (Q9P289 whole entry): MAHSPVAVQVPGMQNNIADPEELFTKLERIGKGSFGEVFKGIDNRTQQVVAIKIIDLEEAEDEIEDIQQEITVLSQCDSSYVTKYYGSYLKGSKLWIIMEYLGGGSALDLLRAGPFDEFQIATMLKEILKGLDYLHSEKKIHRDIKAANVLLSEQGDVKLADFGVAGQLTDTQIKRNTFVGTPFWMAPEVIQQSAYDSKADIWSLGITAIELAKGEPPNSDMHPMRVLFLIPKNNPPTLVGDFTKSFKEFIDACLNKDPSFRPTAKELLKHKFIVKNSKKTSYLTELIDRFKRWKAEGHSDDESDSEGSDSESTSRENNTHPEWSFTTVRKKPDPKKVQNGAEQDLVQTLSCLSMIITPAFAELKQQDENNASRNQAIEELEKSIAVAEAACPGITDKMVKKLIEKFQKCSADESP
Description: as §1

NEK1 = NEK1 (Homo sapiens (Human), UniProt Q96PY6)
Description: as §1

PAK2 = PAK2 (Homo sapiens (Human), UniProt Q13177)
Description: as §1

PHKG2 = PHKG2 (Homo sapiens (Human), UniProt P15735)
Description: as §1

PIK3C2B = PIK3C2B (Homo sapiens (Human), UniProt O00750)
Description: as §1

PIK3CA(H1047L) = PIK3CA(H1047L) (Homo sapiens (Human), UniProt P42336, H1047L)
Description: as §1

PRKCE = PRKCE (Homo sapiens (Human), UniProt Q02156)
Description: as §1

RIOK3 = RIOK3 (Homo sapiens (Human), UniProt O14730)
Chain of RIOK3 (O14730 whole entry): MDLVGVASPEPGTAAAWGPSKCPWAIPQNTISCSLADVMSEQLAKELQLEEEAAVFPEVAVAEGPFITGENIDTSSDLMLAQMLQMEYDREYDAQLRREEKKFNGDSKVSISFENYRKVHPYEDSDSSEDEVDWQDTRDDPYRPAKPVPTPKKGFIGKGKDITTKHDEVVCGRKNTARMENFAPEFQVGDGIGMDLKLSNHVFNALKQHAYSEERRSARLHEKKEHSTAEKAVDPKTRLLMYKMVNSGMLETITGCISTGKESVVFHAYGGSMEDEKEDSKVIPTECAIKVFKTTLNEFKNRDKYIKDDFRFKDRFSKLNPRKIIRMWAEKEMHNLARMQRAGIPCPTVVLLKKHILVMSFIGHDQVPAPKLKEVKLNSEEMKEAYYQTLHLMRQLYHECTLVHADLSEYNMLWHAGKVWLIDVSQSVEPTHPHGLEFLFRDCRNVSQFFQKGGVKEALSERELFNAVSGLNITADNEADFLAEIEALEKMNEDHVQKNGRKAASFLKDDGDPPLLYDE
Description: as §1

SBK1 = SBK1 (Homo sapiens (Human), UniProt Q52WX2)
Description: as §1

TAOK3 = TAOK3 (Homo sapiens (Human), UniProt Q9H2K8)
Chain of TAOK3 (Q9H2K8 whole entry): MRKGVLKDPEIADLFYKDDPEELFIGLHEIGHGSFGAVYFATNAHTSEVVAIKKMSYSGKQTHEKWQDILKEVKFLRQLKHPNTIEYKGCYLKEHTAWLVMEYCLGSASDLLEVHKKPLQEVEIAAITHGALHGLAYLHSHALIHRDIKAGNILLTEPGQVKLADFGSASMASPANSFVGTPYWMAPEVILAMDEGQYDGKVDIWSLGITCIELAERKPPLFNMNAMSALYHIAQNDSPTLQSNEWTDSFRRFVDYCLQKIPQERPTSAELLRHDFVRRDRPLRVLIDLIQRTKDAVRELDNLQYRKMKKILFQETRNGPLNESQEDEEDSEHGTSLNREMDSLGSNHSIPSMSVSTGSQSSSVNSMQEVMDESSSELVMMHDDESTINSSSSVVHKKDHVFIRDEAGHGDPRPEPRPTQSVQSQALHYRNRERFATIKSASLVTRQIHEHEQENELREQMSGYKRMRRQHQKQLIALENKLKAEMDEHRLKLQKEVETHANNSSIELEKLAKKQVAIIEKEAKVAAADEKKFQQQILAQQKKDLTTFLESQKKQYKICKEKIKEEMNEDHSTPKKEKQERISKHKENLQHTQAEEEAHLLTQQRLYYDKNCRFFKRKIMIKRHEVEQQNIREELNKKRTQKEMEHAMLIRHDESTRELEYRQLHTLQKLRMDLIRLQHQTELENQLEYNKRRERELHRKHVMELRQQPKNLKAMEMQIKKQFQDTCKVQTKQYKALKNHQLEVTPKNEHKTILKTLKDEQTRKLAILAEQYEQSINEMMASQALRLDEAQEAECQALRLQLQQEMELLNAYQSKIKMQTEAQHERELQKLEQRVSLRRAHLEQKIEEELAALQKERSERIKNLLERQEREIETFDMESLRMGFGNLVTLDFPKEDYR
Description: as §1

TGFBR2 = TGFBR2 (Homo sapiens (Human), UniProt P37173)
Description: as §1

TIE2 = TIE2 (Homo sapiens (Human), UniProt Q02763)
Description: as §1

TSSK3 = TSSK3 (Homo sapiens (Human), UniProt Q96PN8)
Chain of TSSK3 (Q96PN8 whole entry): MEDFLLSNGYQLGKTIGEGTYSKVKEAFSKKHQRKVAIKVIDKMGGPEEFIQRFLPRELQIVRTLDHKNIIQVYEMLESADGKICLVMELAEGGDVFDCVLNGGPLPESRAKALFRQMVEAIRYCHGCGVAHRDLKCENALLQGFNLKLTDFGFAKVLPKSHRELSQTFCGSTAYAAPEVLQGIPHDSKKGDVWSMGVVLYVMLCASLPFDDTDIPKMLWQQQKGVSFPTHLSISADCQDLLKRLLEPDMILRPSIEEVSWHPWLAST
Description: as §1

TYK2(JH2domainpseudokia) = target: TYK2(JH2domainpseudokia (Homo sapiens (Human), UniProt P29597))
Chain of TYK2(JH2domainpseudokia (P29597 589-875): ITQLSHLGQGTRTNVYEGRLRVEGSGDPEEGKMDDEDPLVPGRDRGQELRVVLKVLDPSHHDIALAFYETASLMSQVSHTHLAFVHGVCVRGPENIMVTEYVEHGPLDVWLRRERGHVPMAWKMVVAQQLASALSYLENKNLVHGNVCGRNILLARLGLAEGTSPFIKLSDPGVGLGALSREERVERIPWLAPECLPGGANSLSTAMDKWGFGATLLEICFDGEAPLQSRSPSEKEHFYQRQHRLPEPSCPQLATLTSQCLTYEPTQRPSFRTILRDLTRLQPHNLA
Description: as §1

WNK4 = WNK4 (Homo sapiens (Human), UniProt Q96J92)
Description: as §1

SMILES: CCN1CCN(Cc2cc(NC(=O)c3ccc(C)c(-c4ccc5nc(NC(=O)C6CC6)cn5n4)c3)cc(C(F)(F)F)c2)CC1 [Compound I-2, 3-(2-(cyclopropanecarboxamido)imidazo[1,2-b]pyridazin-6-yl)-N-(3-((4-ethylpiperazin-1-yl)methyl)-5-(trifluoromethyl)phenyl)-4-methylbenzamide]
- remaining binding at 1 µM [1]: 0%
- remaining binding at 1 µM (ACVRL1): 91%
- remaining binding at 1 µM (ALK(L1196M)): 9.9%
- remaining binding at 1 µM (AMPK-alpha2): 99%
- remaining binding at 1 µM (ANKK1): 100%
- remaining binding at 1 µM (AURKC): 84%
- remaining binding at 1 µM (BMPR2): 100%
- remaining binding at 1 µM (CDK7): 0.55%
- remaining binding at 1 µM (CLK2): 48%
- remaining binding at 1 µM (CSF1R-autoinhibited): 25%
- remaining binding at 1 µM (CSNK1G3): 96%
- remaining binding at 1 µM (CTK): 38%
- remaining binding at 1 µM (DRAK2): 89%
- remaining binding at 1 µM (EPHB 1): 0.65%
- remaining binding at 1 µM (ERK5): 95%
- remaining binding at 1 µM (FLT3 (D835V)): 5.3%
- remaining binding at 1 µM (GAK): 99%
- remaining binding at 1 µM (JNK2): 46%
- remaining binding at 1 µM (JNK3): 85%
- remaining binding at 1 µM (LATS2): 79%
- remaining binding at 1 µM (MAK): 11%
- remaining binding at 1 µM (MAP4K5): 0.7%
- remaining binding at 1 µM (MARK4): 84%
- remaining binding at 1 µM (MINK): 0.6%
- remaining binding at 1 µM (MST4): 92%
- remaining binding at 1 µM (NEK1): 95%
- remaining binding at 1 µM (PAK2): 93%
- remaining binding at 1 µM (PHKG2): 93%
- remaining binding at 1 µM (PIK3C2B): 100%
- remaining binding at 1 µM (PIK3CA(H1047L)): 89%
- remaining binding at 1 µM (PRKCE): 86%
- remaining binding at 1 µM (RIOK3): 100%
- remaining binding at 1 µM (SBK1): 99%
- remaining binding at 1 µM (TAOK3): 0.2%
- remaining binding at 1 µM (TGFBR2): 90%
- remaining binding at 1 µM (TIE2): 0.1%
- remaining binding at 1 µM (TSSK3): 100%
- remaining binding at 1 µM (TYK2(JH2domainpseudokia)): 80%
- remaining binding at 1 µM (WNK4): 75%

SMILES: CCN1CCN(Cc2cc(NC(=O)c3ccc(C)c(-c4ccc5nc(NC(=O)C6CC6)cn5c4)c3)cc(C(F)(F)F)c2)CC1 [Compound I-6, 3-(2-(cyclopropanecarboxamido)imidazo[1,2-a]pyridin-6-yl)-N-(3-((4-ethylpiperazin-1-yl)methyl)-5-(trifluoromethyl)phenyl)-4-methylbenzamide]
- remaining binding at 1 µM [1]: 0%
- remaining binding at 1 µM (ACVRL1): 92%
- remaining binding at 1 µM (ALK(L1196M)): 21%
- remaining binding at 1 µM (AMPK-alpha2): 99%
- remaining binding at 1 µM (ANKK1): 100%
- remaining binding at 1 µM (AURKC): 91%
- remaining binding at 1 µM (BMPR2): 100%
- remaining binding at 1 µM (CDK7): 1%
- remaining binding at 1 µM (CLK2): 100%
- remaining binding at 1 µM (CSF1R-autoinhibited): 49%
- remaining binding at 1 µM (CSNK1G3): 92%
- remaining binding at 1 µM (CTK): 31%
- remaining binding at 1 µM (DRAK2): 98%
- remaining binding at 1 µM (EPHB 1): 0.25%
- remaining binding at 1 µM (ERK5): 92%
- remaining binding at 1 µM (FLT3 (D835V)): 7.7%
- remaining binding at 1 µM (GAK): 93%
- remaining binding at 1 µM (JNK2): 27%
- remaining binding at 1 µM (JNK3): 93%
- remaining binding at 1 µM (LATS2): 85%
- remaining binding at 1 µM (MAK): 22%
- remaining binding at 1 µM (MAP4K5): 3.2%
- remaining binding at 1 µM (MARK4): 80%
- remaining binding at 1 µM (MINK): 2.4%
- remaining binding at 1 µM (MST4): 100%
- remaining binding at 1 µM (NEK1): 97%
- remaining binding at 1 µM (PAK2): 70%
- remaining binding at 1 µM (PHKG2): 98%
- remaining binding at 1 µM (PIK3C2B): 100%
- remaining binding at 1 µM (PIK3CA(H1047L)): 68%
- remaining binding at 1 µM (PRKCE): 83%
- remaining binding at 1 µM (RIOK3): 90%
- remaining binding at 1 µM (SBK1): 97%
- remaining binding at 1 µM (TAOK3): 0.9%
- remaining binding at 1 µM (TGFBR2): 86%
- remaining binding at 1 µM (TIE2): 0.25%
- remaining binding at 1 µM (TSSK3): 91%
- remaining binding at 1 µM (TYK2(JH2domainpseudokia)): 95%
- remaining binding at 1 µM (WNK4): 100%
